Reference: patent US10537097B2, “Methods for treating red blood cells” (VIACELL, LLC., priority 2010, dated 2020)
Each block holds one compound with its values, some of them ahead of it.

Legend:
stored RBCs = experiment: 2,3-DPG level of stored RBCs after incubation with storage and/or rejuvenating composition (Roche 2,3-DPG kit); format: cell-based; settings: 60 minutes at 37° C.
Procedure: A storage and/or rejuvenating composition that includes D-ribose, inosine, sodium pyruvate, and inorganic phosphate, all at a 300 mM concentration as a slurry was prepared. When used to store and/or rejuvenate RBCs, the slurry is diluted 30-fold to a final concentration of 10 mM to form a solution. […] In a study, RBCs were collected and stored for an average of 21 days at 4° C. according to standard blood banking practice. Various RBC storage and/or rejuvenating compositions were added to the 21-day old stored RBCs and held at 37° C. for one to four hours before being tested for 2,3-DPG concentrations. […] A normal 2,3-DPG concentration of RBC immediately upon harvest is 4.0 μmol/ml. […] An increase to 1.0 μmol/ml is considered a significant improvement.

[1] = Solubility of nucleoside / concentrated composition; format: physicochemical; settings: with L-arginine in an equimolecular solution; room temperature

SMILES: O=C[C@H](O)[C@H](O)[C@H](O)COP(=O)(O)O [ribose-5-phosphate]
Rejuvenation (stored RBCs; varying concentrations replacing inosine, with 10 mM each D-ribose, sodium pyruvate, inorganic phosphate): Rejuvenation was not observed

SMILES: Nc1nc2c(ncn2[C@@H]2O[C@H](CO)[C@@H](O)[C@H]2O)c(=O)[nH]1 [Guanosine]
2,3-DPG (stored RBCs; 1 mM guanosine with 10 mM each inorganic phosphate and D-ribose, no sodium pyruvate): 0.47 µmol/mL | 2,3-DPG (stored RBCs; 5 mM guanosine with 10 mM each inorganic phosphate and D-ribose, no sodium pyruvate): 1.30 µmol/mL | 2,3-DPG (stored RBCs; 10 mM guanosine with 10 mM each inorganic phosphate and D-ribose, no sodium pyruvate): 1.10 µmol/mL | Rejuvenation (stored RBCs; guanosine at indicated concentration with 10 mM each inorganic phosphate and D-ribose, no sodium pyruvate): Rejuvenation was observed

Concentration at which inosine remained in solution [1]: above 50 mM
SMILES: OC[C@H]1O[C@@H](n2cnc3c(O)ncnc32)[C@H](O)[C@@H]1O [inosine]
